Read-outs that look alike come from different tables or passages of the source.
Key:
Format in all cases: biochemical
[1] = molecular target: T1, TYK2 (aa 871-1187, catalytic domain, GST-tag) (Homo sapiens, UniProt P29597); test: JAK kinase assay (HTRF, phosphorylation of TK substrate-biotin), TYK2; conditions: ATP at Km (13 μM)
T1 construct: JAK1 (aa 850-1154) and TYK2 (aa 871-1187) are expressed with an N-terminally fused GST-tag; GST (N); purchased Carna Biosciences, Inc; host or cells: baculovirus expression system
T1 sequence (P29597 871-1187): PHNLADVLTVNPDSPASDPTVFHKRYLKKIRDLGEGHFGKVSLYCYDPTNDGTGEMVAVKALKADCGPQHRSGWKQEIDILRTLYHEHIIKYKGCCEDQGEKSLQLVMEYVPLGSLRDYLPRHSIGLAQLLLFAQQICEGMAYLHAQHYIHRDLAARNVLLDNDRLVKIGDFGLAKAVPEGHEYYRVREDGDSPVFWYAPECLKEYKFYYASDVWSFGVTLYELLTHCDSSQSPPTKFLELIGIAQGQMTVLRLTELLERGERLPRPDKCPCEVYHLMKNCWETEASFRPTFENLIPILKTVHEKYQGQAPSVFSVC
How it was run: (§1)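 Compound was mixed with TK substrate-biotin (1 μM final), then kinase plus ATP at its Km was added and left 20-30 min at room temperature. Detection mix with EDTA, Streptavidin-XL665 and STK Ab Cryptate stopped the reaction; after overnight dark incubation, HTRF was read and EC50 derived.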

[2] = molecular target: T2, JAK2 (catalytic domain, His-tag) (Homo sapiens, UniProt O60674); test: JAK kinase assay (HTRF, phosphorylation of TK substrate-biotin), JAK2; conditions: ATP at Km (4 μM)
T2 construct: All four purified enzymes contain only the catalytic domain; His (N); purchased Carna Biosciences, Inc; host or cells: baculovirus expression system
How it was run: as §1

[3] = molecular target: T3, JAK3 (catalytic domain, His-tag) (Homo sapiens, UniProt P52333); test: JAK kinase assay (HTRF, phosphorylation of TK substrate-biotin), JAK3; conditions: ATP at Km (2 μM)
T3 construct: All four purified enzymes contain only the catalytic domain; His (N); purchased Carna Biosciences, Inc; host or cells: baculovirus expression system
How it was run: as §1

[4] = molecular target: T4, JAK1 (aa 850-1154, catalytic domain, GST-tag) (Homo sapiens, UniProt P23458); test: JAK kinase assay (HTRF, phosphorylation of TK substrate-biotin), JAK1; conditions: ATP at Km (7 μM)
T4 construct: JAK1 (aa 850-1154) and TYK2 (aa 871-1187) are expressed with an N-terminally fused GST-tag; GST (N); purchased Carna Biosciences, Inc; host or cells: baculovirus expression system
How it was run: as §1

[5] = HTRF assay, read-out: TYK2 kinase inhibitory activity (EC50 indicator)
[6] = HTRF assay, read-out: JAK2 kinase inhibitory activity (EC50 indicator)
[7] = HTRF assay, read-out: JAK3 kinase inhibitory activity (EC50 indicator)
[8] = HTRF assay, read-out: JAK1 kinase inhibitory activity (EC50 indicator)
[9] = read-out: TYK2 kinase inhibitory activity (EC50 indicator)
[10] = read-out: JAK2 kinase inhibitory activity (EC50 indicator)
[11] = read-out: JAK3 kinase inhibitory activity (EC50 indicator)
[12] = read-out: JAK1 kinase inhibitory activity (EC50 indicator)
[13] = HTRF assay, read-out: TYK2 kinase inhibitory activity (EC50)
[14] = HTRF assay, read-out: JAK2 kinase inhibitory activity (EC50)
[15] = HTRF assay, read-out: JAK3 kinase inhibitory activity (EC50)
[16] = HTRF assay, read-out: JAK1 kinase inhibitory activity (EC50)

T4 sequence (P23458 850-1154): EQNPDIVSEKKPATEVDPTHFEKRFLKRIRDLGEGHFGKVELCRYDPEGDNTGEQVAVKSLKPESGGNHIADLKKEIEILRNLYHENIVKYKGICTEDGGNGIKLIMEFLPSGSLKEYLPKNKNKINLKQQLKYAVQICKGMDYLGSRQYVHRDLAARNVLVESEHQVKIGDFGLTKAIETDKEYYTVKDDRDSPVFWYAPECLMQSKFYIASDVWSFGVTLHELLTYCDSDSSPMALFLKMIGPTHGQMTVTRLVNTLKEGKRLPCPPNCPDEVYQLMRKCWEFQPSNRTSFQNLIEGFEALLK
T2 sequence (O60674 849-1124 limits assumed): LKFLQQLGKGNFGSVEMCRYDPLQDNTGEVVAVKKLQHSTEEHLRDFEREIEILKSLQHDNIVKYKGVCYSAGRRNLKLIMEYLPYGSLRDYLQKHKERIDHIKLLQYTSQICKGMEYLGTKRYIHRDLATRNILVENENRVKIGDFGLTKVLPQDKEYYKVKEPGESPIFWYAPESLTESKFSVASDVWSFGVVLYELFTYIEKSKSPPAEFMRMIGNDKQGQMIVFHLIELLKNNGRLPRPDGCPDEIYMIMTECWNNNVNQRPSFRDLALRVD
T3 sequence (P52333 822-1111 limits assumed): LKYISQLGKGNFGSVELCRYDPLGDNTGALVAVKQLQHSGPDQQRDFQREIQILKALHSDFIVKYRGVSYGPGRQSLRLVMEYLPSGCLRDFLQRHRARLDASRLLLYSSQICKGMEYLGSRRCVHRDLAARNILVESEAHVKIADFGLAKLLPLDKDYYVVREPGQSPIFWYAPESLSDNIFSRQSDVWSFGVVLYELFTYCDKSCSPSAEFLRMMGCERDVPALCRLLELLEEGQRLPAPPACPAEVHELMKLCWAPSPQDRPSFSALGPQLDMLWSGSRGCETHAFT

Compound | EC50 [1, 5] | EC50 [2, 6] | EC50 [3, 7] | EC50 [4, 8] | EC50 [1, 9] | EC50 [2, 10] | EC50 [3, 11] | EC50 [4, 12] | further results
CCc1sc(C(=O)N2CCN(c3ncnc4[nH]ccc34)CC23CC3)cc1Br [Example 209, (4-Bromo-5-ethyl-thiophen-2-yl)-[7-(7H-pyrrolo[2,3-d]pyrimidin-4-yl)-4,7-diaza-spiro[2.5]oct-4-yl]-methanone] | < 100 nM | < 100 nM | 100 to 500 nM | < 100 nM |  |  |  |  | 
NS(=O)(=O)CCCC(=O)N1CCN(c2ncnc3[nH]ccc23)CC12CC2 [Example 143, 4-Oxo-4-[7-(7H-pyrrolo[2,3-d]pyrimidin-4-yl)-4,7-diaza-spiro[2.5]oct-4-yl]-butane-1-sulfonic acid amide] |  |  |  |  | > 500 nM | < 100 nM | < 100 nM | < 100 nM | 
CCC(=O)N1[C@@H]2CC[C@H]1CN(c1ncnc3[nH]ccc13)C2 [Example 30, 1-[3-(7H-Pyrrolo[2,3-d]pyrimidin-4-yl)-3,8-diazabicyclo[3.2.1]oct-8-yl]propan-1-one] |  |  |  |  | > 500 nM | 100 to 500 nM | > 500 nM | 100 to 500 nM | 
NS(=O)(=O)c1csc(C(=O)N2CCN(c3ncnc4[nH]ccc34)CC23CC3)c1 [Example 372, 5-[7-(7H-Pyrrolo[2,3-d]pyrimidin-4-yl)-4,7-diaza-spiro[2.5]octane-4-carbonyl]-thiophene-3-sulfonic acid amide] | < 100 nM | < 100 nM | < 100 nM | < 100 nM |  |  |  |  | 
O=C(c1cc2cc(F)ccc2[nH]1)N1C2CCC1CN(c1ncnc3[nH]ccc13)C2 [Example 136, (5-Fluoro-1H-indol-2-yl)-[3-(7H-pyrrolo[2,3-d]pyrimidin-4-yl)-3,8-diaza-bicyclo[3.2.1]oct-8-yl]-methanone] |  |  |  |  | 100 to 500 nM | < 100 nM | < 100 nM | < 100 nM | 
N#Cc1ccc(C(=O)N2CCN(c3ncnc4[nH]ccc34)CC23CC3)c(F)c1 [Example 92, 3-Fluoro-4-[7-(7H-pyrrolo[2,3-d]pyrimidin-4-yl)-4,7-diaza-spiro[2.5]octane-4-carbonyl]-benzonitrile] |  |  |  |  | 100 to 500 nM | < 100 nM | 100 to 500 nM | < 100 nM | 
CC(C)S(=O)(=O)c1ccc(C(=O)N2C3CCC2CN(c2ncnc4[nH]ccc24)C3)cc1 [Example 202, [4-(Propane-2-sulfonyl)-phenyl]-[3-(7H-pyrrolo[2,3-d]pyrimidin-4-yl)-3,8-diaza-bicyclo[3.2.1]oct-8-yl]-methanone] |  |  |  |  | > 500 nM | 100 to 500 nM | > 500 nM | 100 to 500 nM | 
Cc1ccc(C(=O)N2C3CCC2CN(c2ncnc4[nH]ccc24)C3)cc1S(N)(=O)=O [Example 138, 2-Methyl-5-[3-(7H-pyrrolo[2,3-d]pyrimidin-4-yl)-3,8-diaza-bicyclo[3.2.1]octane-8-carbonyl]-benzenesulfonamide] |  |  |  |  | > 500 nM | < 100 nM | < 100 nM | < 100 nM | 
N#CCOc1ccc(C(=O)N2[C@@H]3CC[C@@H]2CN(c2ncnc4[nH]ccc24)C3)cc1 [Example 342, {4-[3-(7H-Pyrrolo[2,3-d]pyrimidin-4-yl)-3,8-diaza-bicyclo[3.2.1]octane-8-carbonyl]-phenoxy}-acetonitrile] | > 500 nM | < 100 nM | 100 to 500 nM | < 100 nM |  |  |  |  | 
NS(=O)(=O)c1c[nH]c(C(=O)N2CCN(c3ncnc4[nH]ccc34)CC23CC3)c1 [Example 402, 5-[7-(7H-Pyrrolo[2,3-d]pyrimidin-4-yl)-4,7-diaza-spiro[2.5]octane-4-carbonyl]-1H-pyrrole-3-sulfonic acid amide] | < 100 nM | < 100 nM | < 100 nM | < 100 nM |  |  |  |  | 
CCN(CC)S(=O)(=O)N1CCN(c2ncnc3[nH]ccc23)CC12CC2 [Example 459, 7-(7H-Pyrrolo[2,3-d]pyrimidin-4-yl)-4,7-diaza-spiro[2.5]octane-4-sulfonic acid diethylamide] |  |  |  |  |  |  |  |  | EC50 [1, 13]: 100 to 500 nM; EC50 [2, 14]: < 100 nM; EC50 [3, 15]: 100 to 500 nM; EC50 [4, 16]: < 100 nM
NS(=O)(=O)c1ccc(-c2ccc(C(=O)N3CCN(c4ncnc5[nH]ccc45)CC34CC4)o2)cc1 [Example 400, 4-{5-[7-(7H-Pyrrolo[2,3-d]pyrimidin-4-yl)-4,7-diaza-spiro[2.5]octane-4-carbonyl]-furan-2-yl}-benzenesulfonamide] | 100 to 500 nM | < 100 nM | 100 to 500 nM | < 100 nM |  |  |  |  | 
CS(=O)(=O)NCCC(=O)N1[C@@H]2CC[C@@H]1CN(c1ncnc3[nH]ccc13)C2 [Example 176, N-{3-Oxo-3-[3-(7H-pyrrolo[2,3-d]pyrimidin-4-yl)-3,8-diaza-bicyclo[3.2.1]oct-8-yl]-propyl}-methanesulfonamide] |  |  |  |  | > 500 nM | 100 to 500 nM | > 500 nM | 100 to 500 nM | 
CS(=O)(=O)Nc1ccc(C(=O)N2CCN(c3ncnc4[nH]ccc34)CC23CC3)cc1 [Example 430, N-{4-[7-(7H-Pyrrolo[2,3-d]pyrimidin-4-yl)-4,7-diaza-spiro[2.5]octane-4-carbonyl]-phenyl}-methanesulfonamide] | < 100 nM | < 100 nM | < 100 nM | < 100 nM |  |  |  |  | 
COc1cnc2[nH]ccc2c1N1CCN(C(=O)c2ccc(C#N)cc2)C2(CC2)C1 [Example 286, 4-[7-(5-Methoxy-1H-pyrrolo[2,3-b]pyridin-4-yl)-4,7-diaza-spiro[2.5]octane-4-carbonyl]-benzonitrile] | > 500 nM | > 500 nM | > 500 nM | > 500 nM |  |  |  |  | 
N#Cc1ccc(C(=O)N2C[C@@H]3C[C@H]2CN3c2ncnc3[nH]ccc23)cc1 [Example 258, 4-[5-(7H-Pyrrolo[2,3-d]pyrimidin-4-yl)-2,5-diaza-bicyclo[2.2.1]heptane-2-carbonyl]-benzonitrile] | > 500 nM | > 500 nM | > 500 nM | > 500 nM |  |  |  |  | 
O=C(c1nsc2cc(Br)ccc12)N1[C@@H]2CC[C@@H]1CN(c1ncnc3[nH]ccc13)C2 [Example 360, (6-Bromo-benzo[d]isothiazol-3-yl)-[3-(7H-pyrrolo[2,3-d]pyrimidin-4-yl)-3,8-diaza-bicyclo[3.2.1]oct-8-yl]-methanone] | > 500 nM | 100 to 500 nM | 100 to 500 nM | 100 to 500 nM |  |  |  |  | 
O=C(Cc1ccncc1)N1CCN(c2ncnc3[nH]ccc23)CC12CC2 [Example 21, 2-Pyridin-4-yl-1-[7-(7H-pyrrolo[2,3-d]pyrimidin-4-yl)-4,7-diazaspiro[2.5]oct-4-yl]ethanone] |  |  |  |  | > 500 nM | < 100 nM | 100 to 500 nM | < 100 nM | 
CS(=O)(=O)c1cccc(CC(=O)N2CCN(c3ncnc4[nH]ccc34)CC23CC3)c1 [Example 101, 2-(3-Methanesulfonyl-phenyl)-1-[7-(7H-pyrrolo[2,3-d]pyrimidin-4-yl)-4,7-diaza-spiro[2.5]oct-4-yl]-ethanone] |  |  |  |  | > 500 nM | 100 to 500 nM | 100 to 500 nM | 100 to 500 nM | 
NS(=O)(=O)c1ccc(NCC(=O)N2CCN(c3ncnc4[nH]ccc34)CC23CC3)cc1 [Example 454, 4-{2-Oxo-2-[7-(7H-pyrrolo[2,3-d]pyrimidin-4-yl)-4,7-diaza-spiro[2.5]oct-4-yl]-ethylamino}-benzenesulfonamide] |  |  |  |  |  |  |  |  | EC50 [1, 13]: 100 to 500 nM; EC50 [2, 14]: < 100 nM; EC50 [3, 15]: 100 to 500 nM; EC50 [4, 16]: < 100 nM
Cc1cc(S(N)(=O)=O)ccc1C(=O)N1[C@@H]2CC[C@H]1CN(c1ncnc3[nH]ccc13)C2 [Example 391, 3-Methyl-4-[3-(7H-pyrrolo[2,3-d]pyrimidin-4-yl)-3,8-diaza-bicyclo[3.2.1]octane-8-carbonyl]-benzenesulfonamide] | > 500 nM | 100 to 500 nM | 100 to 500 nM | 100 to 500 nM |  |  |  |  | 
O=C(c1cnccn1)N1CCN(c2ccnc3[nH]ccc23)CC12CC2 [Example 225, Pyrazin-2-yl-[7-(1H-pyrrolo[2,3-b]pyridin-4-yl)-4,7-diaza-spiro[2.5]oct-4-yl]-methanone] | > 500 nM | < 100 nM | > 500 nM | 100 to 500 nM |  |  |  |  | 

— US9346809B2 (LEO PHARMA A/S, priority 2009, dated 2016)
